Data: US20220009920A1 (GB005, Inc., priority 2020, published 2022)
pIC50: −log10 of the molar value. Like-named read-outs stand apart in the source and are kept apart here.

Columns and labels:
BTK in RAMOS B cells = experiment: Assay to determine BTK activity in RAMOS B cells (anti-IgM, FLIPR Calcium 6); assay type: cell-based; conditions: anti-IgM EC80, calcium readout
BTK = molecular target: T1, BTK (Homo sapiens, UniProt Q06187); experiment: Assay to determine activity against BTK; assay type: biochemical; conditions: 1 mM ATP, 2 nM BTK, 90 minutes at room temperature
T1 construct: purchased Cama
Procedure, shortened: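 Recombinant BTK (2 nM) was assayed with 1.5 µM FL-peptide and 1 mM ATP in pH 7.5 HEPES buffer with MgCl2, DTT, BSA and EGTA, for 90 min at room temperature before an EDTA stop. Peptide conversion ratio was read by mobility-shift, and IC50 came from 11-point 3-fold dilution curves.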

288 kinases = experiment: Large panel kinase profiling, overall selectivity; assay type: biochemical; conditions: 1 μM test article, 1 mM ATP
Procedure: Large panel kinase profiling was performed at AssayQuant Technologies, Inc. 260 Cedar Hill Street, Marlborough, Mass. 01752 using the PhosphoSens® CSox-Sensor platform using 1 μM test article concentration and 1 mM ATP concentration (www.assayquant.com). Reactions were run in Corning, half-area 96-well, white flat round bottom polystyrene NBS microplates (Cat. #3642) after sealing using optically-clear adhesive film (TopSealA-Plus plate seal, PerkinElmer), applied with either a roller or a paddle to eliminate evaporation and resulting drift. The standard total reaction volume was 50 μL. All experiments were ran at 30° C. to control for fluctuations in ambient temperature. Plates were read from the top in kinetic mode (readings taken every 1 min), monitoring fluorescence intensity with filters using Ex 360 nm and Em 485 nm and a band width of 40 and 20 nm, respectively, and a gain of 80. Data analysis was performed using either Graphpad Prism or Gene Data Screener software.

[1] = Plasma and total brain concentrations at 1 h post single oral administration to male Wistar Han rats; assay type: in vivo; conditions: rat, 10 mg/kg oral gavage; for Kp at 1 h: brain/plasma, read-out: brain to plasma ratio
Procedure: The appropriate amount of test article was dissolved 10% dimethylacetamide (DMA)/90% (20% hydroxypropyl-β-cyclodextrin (HP-B-CD) w/v in water to obtain a final concentration of 1 mg/mL for oral dosing. Sonication, vortex, and homogenization was used as needed. Three male Wistar Han rats aged 6-8 weeks (200-300 grams) were dosed by oral gavage 10 mg/kg solution of the test article.
At 1 h, blood and whole brains were collected. Blood was collected via cardiac puncture into tubes containing potassium EDTA and kept on ice until plasma collection. Plasma was obtained via centrifugation at 4000×g for five minutes at 4° C. Following exsanguination, animals were transcardially perfused with approximately 20 mL of saline, and brains were collected and immediately frozen. Plasma and brains were at −75±15° C. until analysis.
The desired serial concentrations of working solutions were achieved by diluting stock solution of analyte with 50% acetonitrile in water solution. 5 μL of working solutions (2, 5, 10, 50, 100, 500, 1000, 5000, 10000 ng/mL) were added to 50 μL of the male blank Wistar Han rats plasma, brain homogenate to achieve calibration standards of 0.2˜1000 ng/mL (0.2, 0.5, 1, 5, 10, 50, 100, 500, 1000 ng/mL) in a total volume of 55 μL. Four quality control samples at 0.5 ng/mL, 1 ng/mL, 50 ng/mL and 800 ng/mL for plasma, brain homogenate were prepared independently of those used for the calibration curves. These QC samples were prepared on the day of analysis in the same way as calibration standards.
55 μL of standards, 55 μL of QC samples and 55 μL of unknown samples (50 μL of plasma, brain homogenate with 5 μL of blank solution) were added to 200 μL of acetonitrile containing IS mixture for precipitating protein respectively. Then the samples were vortexed for 30 s. After centrifugation at 4° C., 4700 rpm for 15 min, the supernatant was diluted 3 times with water. 10 μL of diluted supernatant was injected into the LC/MS/MS system for quantitative analysis.

[2] = plasma, read-out: Mean [plasma]

T1 sequence (Q06187 whole entry): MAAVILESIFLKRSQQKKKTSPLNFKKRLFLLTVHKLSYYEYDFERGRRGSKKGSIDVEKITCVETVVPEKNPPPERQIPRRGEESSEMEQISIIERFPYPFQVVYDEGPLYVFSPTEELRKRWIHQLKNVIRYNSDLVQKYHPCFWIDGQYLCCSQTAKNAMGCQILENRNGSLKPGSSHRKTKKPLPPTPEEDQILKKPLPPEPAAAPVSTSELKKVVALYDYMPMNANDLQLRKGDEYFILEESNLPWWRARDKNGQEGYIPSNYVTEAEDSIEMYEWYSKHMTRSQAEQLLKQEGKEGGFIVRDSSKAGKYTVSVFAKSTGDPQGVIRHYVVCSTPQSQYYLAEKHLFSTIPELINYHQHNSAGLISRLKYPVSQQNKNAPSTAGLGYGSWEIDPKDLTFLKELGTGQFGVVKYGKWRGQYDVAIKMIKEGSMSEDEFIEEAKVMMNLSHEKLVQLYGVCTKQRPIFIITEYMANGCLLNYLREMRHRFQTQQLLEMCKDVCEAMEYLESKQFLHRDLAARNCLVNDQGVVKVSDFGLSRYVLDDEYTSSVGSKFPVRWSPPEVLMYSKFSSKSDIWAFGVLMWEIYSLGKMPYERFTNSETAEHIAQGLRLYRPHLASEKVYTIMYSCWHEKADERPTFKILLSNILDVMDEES

Structure (SMILES): C=CC(=O)N1CCCC(c2c(F)cc(C(N)=O)c3[nH]c4c(c23)CCCCC4)C1 (single isomer, unassigned) [Compound 5-6]
- pIC50 (BTK in RAMOS B cells): > 8.00
- pIC50 (BTK): > 8.00
- selectivity in the large panel kinase screen (288 kinases): highly selective
- concentration at 1 h ([1]; brain, read-out: Mean [brain]): 84 ng/mL
- Kp at 1 h [1]: 0.43
- concentration at 1 h [1, 2]: 196 ng/mL

Structure (SMILES): C=CC(=O)N1CCC[C@@H](c2c(F)cc(C(N)=O)c3[nH]c4c(c23)CCC4)C1 [Compound 10-2, (S)-8-(1-acryloylpiperidin-3-yl)-7-fluoro-1,2,3,4-tetrahydrocyclo-penta[b]indole-5-carboxamide]
- pIC50 (BTK in RAMOS B cells; Homo sapiens, Ramos): > 8.00
- pIC50 (BTK): > 8.00
- selectivity in the large panel kinase screen (288 kinases): highly selective
- concentration at 1 h ([1]; brain, read-out: Mean [brain]): 116 ng/mL
- Kp at 1 h [1]: 0.29
- concentration at 1 h [1, 2]: 421 ng/mL

Structure (SMILES): C=CC(=O)N1CCC[C@@H](c2c(F)cc(C(N)=O)c3[nH]c4c(c23)CC2(CC4)CC2)C1 [Compound 6-2, (S)-5-(1-acryloylpiperidin-3-yl)-6-fluoro-1,2,4,9-tetrahydrospiro[carbazole-3,1′-cyclopropane]-8-carboxamide]
- pIC50 (BTK in RAMOS B cells; Homo sapiens, Ramos): > 8.00
- pIC50 (BTK): > 8.00
- selectivity in the large panel kinase screen (288 kinases): highly selective
- concentration at 1 h ([1]; brain, read-out: Mean [brain]): 108 ng/mL
- Kp at 1 h [1]: 0.28
- concentration at 1 h [1, 2]: 395 ng/mL
